In US10792410B2, “Bioartificial liver” (Mayo Foundation for Medical Education and Research, priority 2009, dated 2020):

Key:
TLR4 = TLR4 agonist activity of mouse serum, luciferase reporter in HEK293/Luc(+)/TLR4(+) cells; format: cell-based; settings: mouse serum 6 hours after APAP 500 mg/kg vs 0 mg/kg sham controls, p<0.001
From the text: FIGS. 7(a)-7(c): (a) TLR4 Signaling Complex is found in many cell types. It can also be stably transfected into reporter cells to measure TLR4 agonist activity in vitro; (b) is a schematic representation of HEK293 cells which have been transfected with TLR4 complex and a luciferase reporter gene to measure TLR4 agonist activity in vitro. The HEK293/Luc(+)/TLR4(+) cells, used to measure TLR4 agonist activity in mouse serum in (c) are used to screen dog serum for TLR4 agonist activity; (c) TLR4 agonist activity was elevated in mouse blood after toxic exposure to APAP (500 vs 0 mg/kg). This in vitro assay is based on a luciferase reporter gene linked to NFκβ in HEK293 cells which responds to TLR4 activation. Only trace background activity was detected in HEK293 cells lacking the TLR4 complex, labeled TLR4(−), confirming specificity of the luciferase activity to TLR4.
Further evidence supporting TLR4 as a signaling molecule in the SIRS response to ALF is illustrated in FIG. 7. FIGS. 7a-b show the assay, as well as the TLR4 receptor complex, used in the study.
TLR4 agonist activity are measured by an in vitro assay using HEK293/Luc(+)/TLR4(+) cells (see, e.g., Akira S, Takeda K. Toll-like receptor signaling. Nat Rev Immunol 2004; 4:499-511). […] Luciferase reporter gene signal are quantified by TD-20/20 luminometer (Turner Designs, Sunnyvale, Calif.). […]

TLR4 + (Wild type) mice = assay: Toxin-induced liver injury in TLR4 + (wild type) mice; format: in vivo
Description: (§1) The role of TLR4 in ALF and SIRS was studied. […] A similar protective effect of TLR4 deficiency was also observed when wild-type and TLR4 mutant mice were treated with acetaminophen (APAP) at 500 mg/kg—a dose which is highly toxic with 100% mortality in wild-type mice (Table 2). Systemic inflammation was confirmed in wild-type mice after both APAP and Dgal/LPS by rising blood levels of TNFα and neutrophil infiltration in their lungs at necropsy. In contrast, lung histology and systemic levels of TNFα remained normal in TLR4 deficient mice. […] TLR4 deficient Kupffer cells may also explain the protective effects observed in TLR4 deficient mice after toxin exposure (FIG. 6c). […] Pretreatment with gadolinium chloride reduced the number of Kupffer cells in the liver by 48% (31±6 to 16±4 cells/HPF, p<0.001), and lowered peak ALT levels from 2458±2347 U/mL to 278±196 U/mL.

TLR4 − (Deficient) mice = assay: Toxin-induced liver injury in TLR4 − (deficient) mice; format: in vivo; settings: n = 10/group
Description: as §1

[1] = wild type mice, 6 hr, n = 10/group

Row | SMILES | TLR4 agonist activity in serum (TLR4) | ALT, TLR4 + (TLR4 + (Wild type) mice; wild type mice, 18 hr, APAP 500 mg/kg, n = 10/group) [U/mL] | mortality (TLR4 + (Wild type) mice; wild-type mice, 500 mg/kg) [%] | ALT, TLR4 − (TLR4 − (Deficient) mice; 18 hr, APAP 500 mg/kg) [U/mL] | ALT, TLR4 + (TLR4 + (Wild type) mice; [1]) [U/mL] | TUNEL, TLR4 + (TLR4 + (Wild type) mice; [1]) | ALT, TLR4 − (TLR4 − (Deficient) mice; 6 hr) [U/mL] | TUNEL, TLR4 − (TLR4 − (Deficient) mice; 6 hr) | number of Kupffer cells in the liver (TLR4 + (Wild type) mice; after pretreatment, 31±6 without) [cells/HPF] | reduction of the number of Kupffer cells in the liver (TLR4 + (Wild type) mice; pretreatment of wild-type mice, p<0.001) [%]
1 | CC(=O)Nc1ccc(O)cc1 [APAP, acetaminophen] | high levels of TLR4 agonist activity | 9054 ± 4793 | 100 | 4810 ± 4045 |  |  |  |  |  | 
2 | N[C@H]1C(O)O[C@H](CO)[C@H](O)[C@@H]1O (stereo partly drawn) [DGal alone, D-galactosamine] |  |  |  |  | 43 ± 9 | <1 +cells/HPF | 54 ± 18 | <1 +cells/HPF |  | 
3 | [Cl][Gd]([Cl])[Cl] [gadolinium chloride] |  |  |  |  | 278±196 |  |  |  | 16±4 | 48
